{"source": "patent US20150025119A1", "about": "“Release Application for Antihypertensive Agent on Plant Fiber Bundle” (National Tsing Hua University, priority 2013, published 2015)", "assay": "Release of Valsartan from plant fiber bundle base (toothpick) in physiological saline, fluorescence analysis", "format": "physicochemical", "details": "toothpick impregnated at 10 mg/mL, released in physiological saline for 1, 3, 5, 10 minutes, 38 repetitions, FIG. 4", "text": "Firstly, in step 100, antihypertensive agents are fixed onto a plant fiber bundle base such as a toothpick, i.e., solid antihypertensive agents attached onto the plant fiber bundle base. In this step, the plant fiber bundle base may be impregnated in liquid antihypertensive agents. Because of the physical adsorption properties of plant fiber bundles, the composition of the liquid antihypertensive agents is gradually adsorbed into the plant fiber bundles until the amount of antihypertensive agents on plant fiber bundle base reaches a saturated condition. In one embodiment, the concentration of antihypertensive agents (e.g., Valsartan) in liquid form is 2.5, 5, 8, 10, 20 mg/mL, respectively. Then, the plant fiber bundle base is removed. […] Next, in step 102, fluorescence analysis of the released anti-hypertensive agents is performed. […] Based on this feature, an optical instrument is used for fluorescence analysis of different concentrations of Valsartan affixed to toothpicks. Fluorescence analysis of different concentrations of Valsartan was performed using ImageJ image analysis software. […] An optical instrument is used to collect fluorescence data of Valsartan after release in physiological saline in 38 repetitions of the experiment. […]"}
{"smiles": "CCCCC(=O)N(Cc1ccc(-c2ccccc2-c2nnn[nH]2)cc1)[C@H](C(=O)O)C(C)C", "note": "[Valsartan]", "values": [{"measurement": "proportion of release (release percentage) of Valsartan over time", "value": "increases until the saturation level is reached"}]}
